# Measurements as given in patent US8778926B2, “Compounds, pharmaceutical compositions and uses thereof” (Boehringer Ingelheim International GmbH, priority 2011, dated 2014).
# Target: T1, human GPR119 (Homo sapiens, UniProt Q8TDV5)
# T1 construct: expression vector for human GPR119 cDNA (Acc. No. NP_848566); expressed in transfected cells
# T1 sequence (Q8TDV5 1-335): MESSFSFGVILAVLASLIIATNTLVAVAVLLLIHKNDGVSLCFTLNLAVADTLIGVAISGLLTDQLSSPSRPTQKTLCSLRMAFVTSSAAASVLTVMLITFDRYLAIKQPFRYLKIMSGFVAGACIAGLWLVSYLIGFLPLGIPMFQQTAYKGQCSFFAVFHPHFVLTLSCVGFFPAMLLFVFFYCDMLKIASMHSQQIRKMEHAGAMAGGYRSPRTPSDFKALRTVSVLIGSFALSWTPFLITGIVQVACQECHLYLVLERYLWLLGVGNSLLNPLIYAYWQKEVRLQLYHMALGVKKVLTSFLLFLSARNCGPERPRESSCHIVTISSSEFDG
# Experiment: AlphaScreen cAMP assay, activation of GPR119 in Min-6/hGPR119 cells
# Assay type: cell-based
# Settings: MIN6 cells stably transfected with human GPR119; intracellular cAMP; 45 minutes incubation at room temperature
# Description: The compounds of formula I according to the invention modulate the activity of the G-protein-coupled receptor GPR119. The effect of the compounds on the activation of GPR119 and on the stimulation of intracellular cAMP concentration is determined using the AlphaScreen cAMP Assay Kit (Cat. No. #6760625R) made by PerkinElmer.
# MIN6 cells [Miyazaki J et al. Endocrinology. 1990 July; 127(1):126-32] are stably transfected with an expression vector for human GPR119 cDNA (Acc. No. NP_848566). Min-6/hGPR119 cells are cultured in DMEM, 10% FBS, 500 μM β-mercaptoethanol, 0.3 mg/mL Geniticin, 2 mM GlutaMAX at 37° C. 5% CO2. For the assay, the cells are seeded in Optiplates (white, 384-well, 160 W— barcoded, TC, sterile with lid, Cat. No. #6007688 (Perkin Elmer); 10000 cells/well; 50 μl). The plates covered with lids are then incubated for 24 hours at 37° C./5% CO2. After the medium is aspirated from the wells completely, 10 μl of the test compound are added, the compounds are diluted using stimulating buffer (140 mM NaCl, 3.6 mM KCl, 0.5 mM NaH2PO4, 0.5 mM MgSO4, 1.5 mM CaCl2, 10 mM Hepes, 5 mM NaHCO3; pH 7.4. 0.5 mM IBMX and 0.1% BSA, the final DMSO concentration is 1%). After 45 minutes incubation at room temperature (approx. 20° C.), the cAMP concentrations are determined using the AlphaScreen cAMP Assay Kit (Cat. No. #6760625R from PerkinElmer).
row,SMILES,EC50 [nM]
1,"C[C@@]1(C2CCN(c3ncc(C(F)(F)F)cc3F)CC2)Cc2cc(C3=CCN(S(C)(=O)=O)CC3)ncc2O1 (single isomer, unassigned) [Example 40]",2
2,"CS(=O)(=O)c1ccc(-c2ccc3c(c2)CC(C2CCN(c4nc(C5CC5)no4)CC2)O3)cc1 (stereo not drawn) [Example 3, 1-(3-Cyclopropyl-[1,2,4]oxadiazol-5-yl)-4-[5-(4-methanesulfonyl-phenyl)-2,3-dihydro-benzofuran-2-yl]-piperidine]",71
3,CCc1cnc(N2CCC(C3Cc4cc(-c5ccc(C(=O)NCC6COCCO6)cc5)ccc4O3)CC2)nc1 (stereo not drawn) [Example 77],19
4,"Cc1cnc(N2CCC([C@]3(C)Cc4cc(C5=CCN(S(C)(=O)=O)CC5)ncc4O3)CC2)nc1 (single isomer, unassigned) [Example 41]",6
5,"CC(C)(C)c1noc(N2CCC(C3Cc4cc(C5=CCN(S(C)(=O)=O)CC5)ncc4O3)CC2)n1 (stereo not drawn) [Example 34, 2-[1-(3-tert-Butyl-[1,2,4]oxadiazol-5-yl)-piperidin-4-yl]-5-(1-methanesulfonyl-1,2,3,6-tetrahydro-pyridin-4-yl)-2,3-dihydro-furo[2,3-c]pyridine]",18
6,CCc1cnc(N2CCC(C3Cc4cc(-c5ccc(C(=O)NCCC(C)O)cc5)ccc4O3)CC2)nc1 (stereo not drawn) [Example 66],63
7,"CS(=O)(=O)N1CC=C(c2cc3c(cn2)O[C@@H](C2CCN(c4ccc(C(F)(F)F)cn4)CC2)C3)CC1 (single isomer, unassigned) [Example 82]",3
8,CCc1cnc(N2CCC(C3Cc4cc(-c5ccc(C(=O)N6CC(OC)C6)cc5)ccc4O3)CC2)nc1 (stereo not drawn) [Example 76],59
9,"CC1(C2CCN(c3nnc(C(F)(F)F)s3)CC2)Cc2cc(C3=CCN(S(C)(=O)=O)CC3)ncc2O1 (single isomer, unassigned) [Example 48, 5-(1-Methanesulfonyl-1,2,3,6-tetrahydro-pyridin-4-yl)-2-methyl-2-[1-(5-trifluoromethyl-[1,3,4]thiadiazol-2-yl)-piperidin-4-yl]-2,3-dihydro-furo[2,3-c]pyridine]",12
10,"Cc1cnc(N2CCC([C@H]3Cc4cc(C5=CCN(S(C)(=O)=O)CC5)ncc4O3)CC2)nc1 (single isomer, unassigned) [Example 33]",6
11,CCc1cnc(N2CCC(C3Cc4cc(-c5ccc(C(=O)N(C)CC#N)cc5)ccc4O3)CC2)nc1 (stereo not drawn) [Example 71],16
12,"CCc1cnc(N2CCC([C@H]3Cc4cc(-c5ccc(S(C)(=O)=O)cc5)ncc4O3)CC2)nc1 (single isomer, unassigned) [Example 85]",7
13,"CCCc1nc(N2CCC([C@@H]3Cc4cc(C5=CCN(S(C)(=O)=O)CC5)ncc4O3)CC2)no1 (single isomer, unassigned) [Example 49]",25
14,"CC(C)(C)c1noc(N2CCC([C@]3(C)Cc4cc(-c5ccc(S(C)(=O)=O)cc5)ncc4O3)CC2)n1 (single isomer, unassigned) [Example 29]",51
15,"CS(=O)(=O)N1CC=C(c2cc3c(cn2)O[C@@H](C2CCN(c4ncc(C(F)(F)F)cn4)CC2)C3)CC1 (single isomer, unassigned) [Example 79]",3
16,"CC(C)c1noc(N2CCC(C3Cc4cc(C5=CCN(S(C)(=O)=O)CC5)ncc4O3)CC2)n1 (stereo not drawn) [Example 20, 2-[1-(3-Isopropyl-[1,2,4]oxadiazol-5-yl)-piperidin-4-yl]-5-(1-methanesulfonyl-1,2,3,6-tetrahydro-pyridin-4-yl)-2,3-dihydro-furo[2,3-c]pyridine]",16
17,"C[C@@]1(C2CCN(c3ncc(C4CC4)cn3)CC2)Cc2cc(-c3ccc(S(C)(=O)=O)cc3)ncc2O1 (single isomer, unassigned) [Example 89]",16

row,SMILES,EC50 [nM]
1,"CS(=O)(=O)N1CC=C(c2cc3c(cn2)O[C@@H](C2CCN(c4ncc(Cl)cn4)CC2)C3)CC1 (single isomer, unassigned) [Example 83]",3
2,"CCCc1nc(N2CCC(C3Cc4cc(C5=CCN(S(C)(=O)=O)CC5)ncc4O3)CC2)no1 (stereo not drawn) [Example 23, 5-(1-Methanesulfonyl-1,2,3,6-tetrahydro-pyridin-4-yl)-2-[1-(5-propyl-[1,2,4]oxadiazol-3-yl)-piperidin-4-yl]-2,3-dihydro-furo[2,3-c]pyridine]",7
3,"CC(C)c1noc(N2CCC(C3Cc4cc(-c5ccc(CS(C)(=O)=O)cc5F)ncc4O3)CC2)n1 (stereo not drawn) [Example 21, 5-(2-Fluoro-4-methanesulfonylmethyl-phenyl)-2-[1-(3-isopropyl-[1,2,4]oxadiazol-5-yl)-piperidin-4-yl]-2,3-dihydro-furo[2,3-c]pyridine]",28
4,"CC1(c2nc(N3CCC([C@@H]4Cc5cc(C6=CCN(S(C)(=O)=O)CC6)ncc5O4)CC3)no2)CC1 (single isomer, unassigned) [Example 57]",36
5,"COc1cnc(N2CCC([C@H]3Cc4cc(C5=CCN(S(C)(=O)=O)CC5)ncc4O3)CC2)nc1 (single isomer, unassigned) [Example 92]",10
6,"COc1cnc(N2CCC([C@H]3Cc4cc(-c5ccc(S(C)(=O)=O)cc5)ncc4O3)CC2)nc1 (single isomer, unassigned) [Example 94]",18
7,"CC(C)c1nc(N2CCC(C3Cc4cc(-c5ccc(CS(C)(=O)=O)cc5F)ncc4O3)CC2)no1 (stereo not drawn) [Example 24, 5-(2-Fluoro-4-methanesulfonylmethyl-phenyl)-2-[1-(5-isopropyl-[1,2,4]oxadiazol-3-yl)-piperidin-4-yl]-2,3-dihydro-furo[2,3-c]pyridine]",60
8,"CC(C)c1noc(N2CCC(C3Cc4cc(-c5ccc(S(C)(=O)=O)cc5)ccc4O3)CC2)n1 (stereo not drawn) [Example 2, 1-(3-Isopropyl-[1,2,4]oxadiazol-5-yl)-4-[5-(4-methanesulfonyl-phenyl)-2,3-dihydro-benzofuran-2-yl]-piperidine]",27
9,"CS(=O)(=O)N1CC=C(c2cc3c(cn2)O[C@H](C2CCN(c4ncc(C(F)(F)F)cn4)CC2)C3)CC1 (single isomer, unassigned) [Example 52]",19
10,"Cc1cnc(N2CCC([C@@H]3Cc4cc(C5=CCN(S(C)(=O)=O)CC5)ncc4O3)CC2)nc1 (single isomer, unassigned) [Example 32]",29
11,"CC(C)c1nc(N2CCC([C@H]3Cc4cc(C5=CCN(S(C)(=O)=O)CC5)ncc4O3)CC2)no1 (single isomer, unassigned) [Example 45]",13
12,"CCc1cnc(N2CCC(C3Cc4cc(C5=CCN(S(C)(=O)=O)CC5)ncc4O3)CC2)nc1 (stereo not drawn) [Example 18, 2-[1-(5-Ethyl-pyrimidin-2-yl)-piperidin-4-yl]-5-(1-methanesulfonyl-1,2,3,6-tetrahydro-Pyridin-4-yl)-2,3-dihydro-furo[2,3-c]pyridine]",2
13,CCc1cnc(N2CCC(C3Cc4cc(-c5ccc(C(=O)N6CCC(OC)CC6)cc5)ccc4O3)CC2)nc1 (stereo not drawn) [Example 69],48
14,"CCc1cnc(N2CCC([C@H]3Cc4cc(C5=CCN(S(C)(=O)=O)CC5)ncc4O3)CC2)nc1 (single isomer, unassigned) [Example 31]",3
15,"CS(=O)(=O)N1CC=C(c2cc3c(cn2)O[C@@H](C2CCN(c4cnc(C(F)(F)F)cn4)CC2)C3)CC1 (single isomer, unassigned) [Example 80]",5
16,"C[C@@]1(C2CCN(c3ccc(C(F)(F)F)cn3)CC2)Cc2cc(C3=CCN(S(C)(=O)=O)CC3)ncc2O1 (single isomer, unassigned) [Example 37]",6
